In patent US6350609B1, “Electrospraying for mass fabrication of chips and libraries” (New York University, priority 1997, dated 2002):
Several values for one entry are separate records, joined by “and”; a condition that tells them apart may be missing. Identical values can stand only once.

Key:
Pancreatic RNAse = molecular target: T1, Pancreatic RNAse (Bos taurus, UniProt P61823); assay: Mechano-chemical effect of a specific ligand on cross-linked protein film (isometric tension); type: biochemical; settings: ligand 5-10 times binding constant
T1 construct: purchased Sigma, St. Louis
T1 sequence (P61823 27-150): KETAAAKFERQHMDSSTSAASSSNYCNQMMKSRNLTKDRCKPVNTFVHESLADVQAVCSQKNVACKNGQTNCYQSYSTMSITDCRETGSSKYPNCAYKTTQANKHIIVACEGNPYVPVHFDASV

Avidin = Avidin (Gallus gallus, UniProt P02701); assay: as above; type: biochemical; settings: ligand 5-10 times binding constant
peroxidase = assay: Enzyme activity of electrospray-deposited peroxidase on nitrocellulose filter (DAB substrate); type: biochemical; settings: deposited through polypropylene mask onto wetted nitrocellulose filter; DAB staining
Source text: The electrospray conditions used in this example were similar to those used in Example 1.
After electrospray, the pattern of deposited enzyme was not visible on the membrane filter surface. However, the patterns of the enzymes did become visible after soaking the peroxidase-deposited membrane filter in a solution of a standard peroxidase substrate (3,3′-diaminobenzidine, abbreviated DAB, and obtained from Sigma, St. Louis, Mo.), resulting in the formation of an insoluble brown colored product of the peroxidase reaction.

Pancreatic Trypsin = assay: Mechano-chemical effect of a specific ligand on cross-linked protein film (isometric tension); type: biochemical; settings: ligand concentration 5-10 times binding constant; for Effect in Dried Sample % (relative change in isometric tension in protein film induced by binding of specific ligand): conventional drying on glass
Concanavalin A = Concanavalin A (Canavalia ensiformis, UniProt P02866); settings: cross-linked Concanavalin A film, ligand 5-10 times binding constant
Procedure: Protein films were prepared by electrospray for use in a mechanochemical method of assay. A 2 mg/ml concanavalin A (Sigma, St. Louis, Mo.) solution, containing 0.5 mg/ml of glycerol was electrosprayed through a rectangular single hole onto an Al electrode covered with a polymeric conducting sublayer of about 2-5 microns thick. The sublayer was prepared by drying a thin layer of water solution of a mixture of three compounds (polyethylene glycol-8000, poly(anetholesulfonic acid)—Na-salt and Triton X-100), 3%. each. The protein solution was electrosprayed from a capillary tip placed 20 mm over the substrate, with positive voltage of 4.0 kV at the capillary and a current of 33 nA. Deposition was performed in dry air for 10 minutes. After electrospray deposition, the sample was cross-linked for 15 minutes in a vapor of 25% glutaraldehyde (Aldrich Chemical Company, Milwaukee, Wis.) at 25° C. Upon applying a droplet of water on the substrate surface, the sample was floated off the substrate within 5 seconds.

[1] = molecular target: T2, Alkaline phosphatase (AP) from bovine intestinal mucosa (Bos taurus, UniProt P19111); assay: Effect of AgNO3 added to AP solution on AP activity; type: biochemical; settings: 10^−4 M AgNO3 added to the AP solution
T2 construct: purchased Sigma Chemical Co., St. Louis, Mo; host or cells: bovine intestinal mucosa
Procedure: AP activity was measured immediately after spot extraction by adding 5-20 μL of the extract solution to 1.0 mL of the p-NPP solution in the TRIS/HCl buffer prepared from Sigma Fast tablets. Activity was measured in a room with a thermostat, with a temperature of 25±1° C. […] The specific activity was calculated using protein concentration measured gravimetrically, as described above in the mass measurement section.
It is believed, therefore, that the inactivation of AP at high voltages and currents occur outside the capillary as a result of reaction with the products of corona discharge or as the result of impact with the target electrode. Impact energy should grow with an increase of the potential, causing protein distraction on impact. This can explain the increase in AP inactivation with increasing voltage and current. The generation of corona products in electrospray deposition at I>200-300 nA was noticeable from a characteristic smell of ozone in the electrospray chamber. […] The capillary with the external electrode supports corona discharge more readily than the capillary with the internal electrode, which explains why AP is inactivated at lower currents and to a higher extent when electrospray deposited from the capillary with the external electrode.

[2] = system: goat antibody against human serum albumin; assay: microELISA of electrospray-deposited protein antigens on IMMOBILON-P filter; type: binding; settings: primary antibody against human serum albumin 1:1000, AP-labeled secondary antibody 1:3000
Procedure: Different antigens (serum albumins from human and ox, ovalbumin and human hemoglobin) were electrospray deposited onto a wetted IMMOBILON-P membrane filter through a mask having multiple holes. After each deposition of a different protein antigen, the mask was shifted by 1.1 mm. After depositing all four protein antigens, the membrane filter was dried for 15 min. at 37° C. and blocked by soaking in a PBS solution (10 mM sodium phosphate buffer, pH 7.2, 0.9% NaCl) with 0.05% Tween-20, 1% chicken albumin (ovalbumin). […] The filter was then washed twice with PBS buffer for 10 seconds and reacted with a solution of anti-goat IgG antibodies labeled with alkaline phosphatase (Sigma, diluted 1:3000).

[3] = molecular target: T3, Alcohol dehydrogenase (horse liver) (Equus caballus, UniProt P00327); assay: Mechano-chemical effect of a specific ligand on cross-linked protein film (isometric tension); type: biochemical; settings: 0.4 mM NADH solution
T3 construct: purchased Sigma, St. Louis, Mo; host or cells: horse liver
Procedure: A film of horse liver alcohol dehydrogenase (LADH, Sigma, St. Louis, Mo., shown in FIG. 14B, was fabricated on an Al electrode covered with a sublayer consisting of 95% of the sodium salt of alginic acid (Sigma, St. Louis, Mo.) and 5 of Triton X-100 detergent. The LADH solution containing 5 mg/ml of protein and 1.5 mg/ml of sucrose was electrosprayed in dry air at +4.3 kV and 30-40 nA from a capillary placed about 15 mm over the substrate. The deposited film was cross-linked for 8 minutes with the vapor from 25% glutaraldehyde at 28° C. The samples were then tested for their ability to change isometric tension in response to 0.4 mM NADH solution.

Lysozyme (egg) = Lysozyme (egg) (Gallus gallus, UniProt P00698); assay: as above; type: biochemical; settings: ligand 5-10 times binding constant
α-Lactalburnin = assay: as above; type: biochemical
Source text: Using protein as an example of a biomolecule for electrospray deposition, the structure of the protein film and the functional properties of the protein molecules in the film is dependent on the path of flight of the electrospray, speed of the charged particles controlled by voltage, sign of the charges, humidity and temperature under which the protein molecules are electrosprayed, protein concentration in solution, and presence of stabilizers. At short distances, e.g., about 15 mm between capillary and substrate, or when the electrospray takes place in a humid atmosphere (relative humidity of more than 70-80%), charged microdroplets from the electrospray can reach the surface without decay or the production of dry ions, i.e., in the wet electrospray regime. The sample films obtained after evaporation of the deposited microdroplets on the substrate have much in common with the sample protein films obtained conventionally by applying a protein solution directly to the substrate and allowing the proteins to dry.

[4] = molecular target: T4, 3-phosphoglycerate kinase (yeast) (Saccharomyces cerevisiae, UniProt P00560); assay: as above; type: biochemical; settings: cross-linked 3-phosphoglycerate kinase (yeast) film, ligand 5-10 times binding constant
T4 sequence (P00560 1-416): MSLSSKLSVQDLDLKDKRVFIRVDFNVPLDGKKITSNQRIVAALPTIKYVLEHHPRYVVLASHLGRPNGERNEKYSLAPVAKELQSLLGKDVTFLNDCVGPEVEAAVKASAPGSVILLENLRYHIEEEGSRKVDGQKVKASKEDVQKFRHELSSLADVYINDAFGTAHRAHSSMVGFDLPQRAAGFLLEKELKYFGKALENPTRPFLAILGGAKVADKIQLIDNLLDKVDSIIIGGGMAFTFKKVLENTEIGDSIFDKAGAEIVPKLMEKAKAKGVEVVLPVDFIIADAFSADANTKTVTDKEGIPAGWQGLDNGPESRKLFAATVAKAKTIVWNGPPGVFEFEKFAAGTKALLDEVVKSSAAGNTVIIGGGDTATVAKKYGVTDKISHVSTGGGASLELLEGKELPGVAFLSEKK

Lysozyme (egg), sequence (P00698 19-147): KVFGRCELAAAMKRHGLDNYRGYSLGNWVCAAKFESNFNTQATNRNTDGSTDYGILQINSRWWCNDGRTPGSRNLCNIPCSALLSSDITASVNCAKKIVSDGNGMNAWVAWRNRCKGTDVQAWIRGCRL
Avidin, sequence (P02701 25-152, species assumed): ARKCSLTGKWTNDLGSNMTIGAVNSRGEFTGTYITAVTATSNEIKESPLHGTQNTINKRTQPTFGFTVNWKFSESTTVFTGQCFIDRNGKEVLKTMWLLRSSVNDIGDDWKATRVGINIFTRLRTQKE
T3 sequence (P00327 whole entry): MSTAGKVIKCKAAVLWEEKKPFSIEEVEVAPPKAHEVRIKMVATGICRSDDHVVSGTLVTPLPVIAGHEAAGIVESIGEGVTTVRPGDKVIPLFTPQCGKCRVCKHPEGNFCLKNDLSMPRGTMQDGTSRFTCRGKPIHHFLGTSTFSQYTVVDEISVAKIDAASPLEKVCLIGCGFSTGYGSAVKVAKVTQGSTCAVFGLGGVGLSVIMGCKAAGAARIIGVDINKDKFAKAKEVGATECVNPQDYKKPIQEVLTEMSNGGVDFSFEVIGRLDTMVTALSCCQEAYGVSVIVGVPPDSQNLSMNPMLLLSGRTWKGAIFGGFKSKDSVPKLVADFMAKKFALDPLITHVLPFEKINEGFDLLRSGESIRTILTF
T2 sequence (P19111 20-506): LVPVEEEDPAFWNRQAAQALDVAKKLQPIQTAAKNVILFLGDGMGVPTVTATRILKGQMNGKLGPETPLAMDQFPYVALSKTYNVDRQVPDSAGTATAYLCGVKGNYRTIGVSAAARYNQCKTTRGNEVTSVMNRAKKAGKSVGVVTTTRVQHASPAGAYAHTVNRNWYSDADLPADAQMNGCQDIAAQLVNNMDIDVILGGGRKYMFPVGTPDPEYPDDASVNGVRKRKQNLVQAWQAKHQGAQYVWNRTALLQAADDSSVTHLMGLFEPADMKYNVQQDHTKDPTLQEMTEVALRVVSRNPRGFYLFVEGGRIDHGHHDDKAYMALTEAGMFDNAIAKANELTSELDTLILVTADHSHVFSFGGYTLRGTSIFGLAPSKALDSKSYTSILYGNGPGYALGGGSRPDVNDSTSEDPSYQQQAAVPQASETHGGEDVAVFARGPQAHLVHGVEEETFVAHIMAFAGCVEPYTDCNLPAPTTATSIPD

With `Nc1ccn([C@@H]2O[C@H](CO)[C@@H](OP(=O)(O)O)[C@H]2O)c(=O)n1` [3′-Cytidine monophosphate] the “Effect in Dried Sample % (relative change in isometric tension)” value (Pancreatic RNAse; conventional drying on glass) was “+4.0%” and the “Effect in Electrospray Deposit Sample % (relative change in isometric tension)” value (Pancreatic RNAse; electrospray deposited) was −3.4%.

`O=C(O)CCCC[C@@H]1SC[C@@H]2NC(=O)N[C@@H]21` [Biotin] was tested, and the “Effect in Dried Sample % (relative change in isometric tension)” value (Avidin; conventional drying on glass) was −51% and the “Effect in Electrospray Deposit Sample % (relative change in isometric tension)” value (Avidin; electrospray deposited) was −41% and −48%.

“peroxidase: commercially available peroxidase (Sigma), electrospray deposited; horseradish peroxidase per b108” was tested, and the “enzymatic activity after electrospray deposition” value (peroxidase) was “retained”.

With `Nc1ccc2cc3ccc(N)cc3nc2c1` [Proflavin] the “Effect in Dried Sample % (relative change in isometric tension in protein film induced by binding of specific ligand)” value (Pancreatic Trypsin) was “+69%” and the “Effect in Electrospray Deposit Sample % (relative change in isometric tension in protein film induced by binding of specific ligand)” value (Pancreatic Trypsin; electrospray deposited) was “+72; +72%”.

In the case of α-D-mannopyranoside, the “Effect in Dried Sample % (relative change in isometric tension)” value (Concanavalin A; conventional drying on glass) is reported as “+11%” and the “Effect in Electrospray Deposit Sample % (relative change in isometric tension)” value (Concanavalin A; electrospray deposited) is reported as “+4%”.

`O=[N+]([O-])[O-].[Ag+]` [AgNO3] was tested, and the “inhibition of AP” value [1] was “does not result in any inhibition”.

With “bovine albumin: serum albumin from ox, antigen electrospray deposited onto filter” the “spot intensity in microELISA” value [2] was “less intensively colored”.

`NC(=O)C1=CN([C@@H]2O[C@H](COP(=O)(O)OP(=O)(O)OC[C@H]3O[C@@H](n4cnc5c(N)ncnc54)[C@H](O)[C@@H]3O)[C@@H](O)[C@H]2O)C=CC1` [NADH] was tested, and the “ligand-induced increase in isometric tension” value ([3]; conventionally prepared LADH film) was 6-7% and the “ligand-induced increase in isometric tension” value ([3]; electrospray deposited LADH film, glutaraldehyde cross-linked) was 6-7%.

In the case of `CCOC(=O)[C@H](CCCN=C(N)N)NC(=O)c1ccccc1` [BAEE], the “Effect in Dried Sample % (relative change in isometric tension in protein film induced by binding of specific ligand)” value (Pancreatic Trypsin) is reported as “+23%”.

`CC(=O)N[C@H]1C(O)O[C@H](CO)[C@@H](O)[C@@H]1O` (stereo partly drawn) [N-acetyl-D-glucosamine] was tested, and the “Effect in Dried Sample % (relative change in isometric tension)” value (Lysozyme (egg); conventional drying on glass) was −7.7% and −8.7% and the “Effect in Electrospray Deposit Sample % (relative change in isometric tension)” value (Lysozyme (egg); electrospray deposited) was −6.3% and −3.5%.

For `[Ca+2]` [Ca^+2], the “Effect in Dried Sample % (relative change in isometric tension)” value (α-Lactalburnin; cross-linked α-Lactalburnin film, conventional drying on glass, ligand 5-10 times binding constant) was “+240%”, the “Effect in Electrospray Deposit Sample % (relative change in isometric tension)” value (α-Lactalburnin; cross-linked α-Lactalburnin film, electrospray deposited, ligand 5-10 times binding constant) was “+370%” and the “difference in mechanochemical response to ligand between wet electrospray deposited and conventionally prepared films” value (α-Lactalburnin; α-lactalbumin films, wet electrospray deposition onto glass covered with conducting SnO2 layer) was “No notable difference”.

With “human hemoglobin: protein antigen electrospray deposited onto IMMOBILON-P filter” the “spot intensity in microELISA” value [2] was “less intensively colored”.

For `Nc1ncnc2c1ncn2[C@@H]1O[C@H](COP(=O)(O)OP(=O)([O-])OP(=O)([O-])O)[C@@H](O)[C@H]1O.[Mg+2]` [Mg-ATP], the “Effect in Dried Sample % (relative change in isometric tension)” value ([4]; conventional drying on glass) was “+13%” and the “Effect in Electrospray Deposit Sample % (relative change in isometric tension)” value ([4]; electrospray deposited) was “+16%”.

B1: ovalbumin: protein antigen electrospray deposited onto IMMOBILON-P filter (protein, UniProt P01012 2-386, looked up)
Ovalbumin: GSIGAASMEFCFDVFKELKVHHANENIFYCPIAIMSALAMVYLGAKDSTRTQINKVVRFDKLPGFGDSIEAQCGTSVNVHSSLRDILNQITKPNDVYSFSLASRLYAEERYPILPEYLQCVKELYRGGLEPINFQTAADQARELINSWVESQTNGIIRNVLQPSSVDSQTAMVLVNAIVFKGLWEKAFKDEDTQAMPFRVTEQESKPVQMMYQIGLFRVASMASEKMKILELPFASGTMSMLVLLPDEVSGLEQLESIINFEKLTEWTSSNVMEERKIKVYLPRMKMEEKYNLTSVLMAMGITDVFSSSANLSGISSAESLKISQAVHAAHAEINEAGREVVGSAEAGVDAASVSEEFRADHPFLFCIKHIATNAVLFFGRCVSP
In the case of B1, the “spot intensity in microELISA” value [2] is reported as “not visible at all”.
